One compound from ChEMBL document CHEMBL4507319 (2021) can be followed below.

Structures are written as SMILES.

Test [1] has as its system DU-145. Put plainly: DU-145 cell line Proliferation assay. Type of test: functional, Homo sapiens. The note with it: time 6 day.
Test [2] deals with Fibroblast growth factor receptor 4 (Homo sapiens) (UniProt P22455). Put plainly: FGFR4(h) Eurofins kinase panel. The note with it: Compound concentration 1.0 uM.
For test [3], the target named is Tyrosine-protein kinase SYK (Homo sapiens) (UniProt P43405). As to the kind of experiment: Syk(h) Eurofins kinase panel. The note with it: Compound concentration 1.0 uM.
Test [4] addresses CDK18/Cyclin Y (Homo sapiens) (UniProt Q07002+Q8ND76). Put plainly: CDK18/cyclinY(h) Eurofins kinase panel. Format: protein-complex assay. The note with it: Compound concentration 1.0 uM.
The subject of test [5] is SNU-16. Put plainly: SNU-16 cell line Proliferation assay. Type of test: functional, Homo sapiens. The following applies: time 3 day.
In test [6] the target is Tyrosine-protein kinase Fes/Fps (Homo sapiens) (UniProt P07332). As to the kind of experiment: Fes(h) Eurofins kinase panel. The following applies: Compound concentration 1.0 uM.
Sequence of Tyrosine-protein kinase Fes/Fps (Homo sapiens) (P07332 whole entry): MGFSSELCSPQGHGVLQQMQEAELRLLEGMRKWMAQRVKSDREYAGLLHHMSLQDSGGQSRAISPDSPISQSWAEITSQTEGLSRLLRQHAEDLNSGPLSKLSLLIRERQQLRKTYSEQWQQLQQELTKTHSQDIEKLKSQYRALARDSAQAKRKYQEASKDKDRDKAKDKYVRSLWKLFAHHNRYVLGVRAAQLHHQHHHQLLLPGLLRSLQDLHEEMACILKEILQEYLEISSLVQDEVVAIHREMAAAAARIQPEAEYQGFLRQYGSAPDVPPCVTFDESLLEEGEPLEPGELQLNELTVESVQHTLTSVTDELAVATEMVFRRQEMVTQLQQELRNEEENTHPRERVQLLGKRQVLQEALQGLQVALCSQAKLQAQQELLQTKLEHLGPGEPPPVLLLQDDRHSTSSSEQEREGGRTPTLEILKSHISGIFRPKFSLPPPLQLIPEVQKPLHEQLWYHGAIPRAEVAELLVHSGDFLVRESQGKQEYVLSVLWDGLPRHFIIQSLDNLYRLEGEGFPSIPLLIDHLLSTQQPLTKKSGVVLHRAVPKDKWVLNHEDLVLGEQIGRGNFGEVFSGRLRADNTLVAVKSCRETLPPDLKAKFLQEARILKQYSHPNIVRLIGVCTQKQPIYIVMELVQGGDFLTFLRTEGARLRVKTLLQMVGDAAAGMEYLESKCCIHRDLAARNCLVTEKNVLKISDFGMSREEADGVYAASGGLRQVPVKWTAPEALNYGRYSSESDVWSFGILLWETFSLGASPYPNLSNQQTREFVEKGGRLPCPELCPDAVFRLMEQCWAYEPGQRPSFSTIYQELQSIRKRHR
For test [7], the target named is Cyclin-dependent kinase 5/CDK5 activator 1 (Homo sapiens) (UniProt Q00535+Q15078). Put plainly: CDK5/p35(h) Eurofins kinase panel. The note with it: Compound concentration 1.0 uM. Type of test: protein-complex assay.
Sequence of Cyclin-dependent kinase 5/CDK5 activator 1 (Homo sapiens) (Q00535 whole entry): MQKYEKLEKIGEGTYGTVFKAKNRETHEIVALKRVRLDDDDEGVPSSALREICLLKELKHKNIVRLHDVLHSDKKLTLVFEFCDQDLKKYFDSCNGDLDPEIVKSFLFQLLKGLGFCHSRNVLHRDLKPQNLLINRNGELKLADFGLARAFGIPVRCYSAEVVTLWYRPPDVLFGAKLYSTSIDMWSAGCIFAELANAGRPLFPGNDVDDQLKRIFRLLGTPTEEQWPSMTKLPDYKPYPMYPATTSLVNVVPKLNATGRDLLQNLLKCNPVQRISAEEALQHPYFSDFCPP
Sequence of Cyclin-dependent kinase 5/CDK5 activator 1 (Homo sapiens) (Q15078 99-307 partner limits assumed): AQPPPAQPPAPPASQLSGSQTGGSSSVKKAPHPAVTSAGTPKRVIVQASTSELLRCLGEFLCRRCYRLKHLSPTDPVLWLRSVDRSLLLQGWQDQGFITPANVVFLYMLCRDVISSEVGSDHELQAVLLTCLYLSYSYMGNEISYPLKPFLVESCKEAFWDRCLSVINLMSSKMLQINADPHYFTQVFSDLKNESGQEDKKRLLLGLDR
For test [8], the system named is U2OS. Put plainly: U2-OS cell line Proliferation assay. Type of test: functional, Homo sapiens. The note with it: time 3 day.
Test [9] concerns the target Insulin-like growth factor 1 receptor (Homo sapiens) (UniProt P08069). Put plainly: IGF-1R(h), activated Eurofins kinase panel. The note with it: Compound concentration 1.0 uM.
Test [10] deals with Platelet-derived growth factor receptor beta (Homo sapiens) (UniProt P09619). Put plainly: PDGFRbeta(h) Eurofins kinase panel. The note with it: Compound concentration 1.0 uM.
In test [11] the target is T1, Muscle, skeletal receptor tyrosine-protein kinase (Homo sapiens) (UniProt O15146).
T1 sequence (whole entry): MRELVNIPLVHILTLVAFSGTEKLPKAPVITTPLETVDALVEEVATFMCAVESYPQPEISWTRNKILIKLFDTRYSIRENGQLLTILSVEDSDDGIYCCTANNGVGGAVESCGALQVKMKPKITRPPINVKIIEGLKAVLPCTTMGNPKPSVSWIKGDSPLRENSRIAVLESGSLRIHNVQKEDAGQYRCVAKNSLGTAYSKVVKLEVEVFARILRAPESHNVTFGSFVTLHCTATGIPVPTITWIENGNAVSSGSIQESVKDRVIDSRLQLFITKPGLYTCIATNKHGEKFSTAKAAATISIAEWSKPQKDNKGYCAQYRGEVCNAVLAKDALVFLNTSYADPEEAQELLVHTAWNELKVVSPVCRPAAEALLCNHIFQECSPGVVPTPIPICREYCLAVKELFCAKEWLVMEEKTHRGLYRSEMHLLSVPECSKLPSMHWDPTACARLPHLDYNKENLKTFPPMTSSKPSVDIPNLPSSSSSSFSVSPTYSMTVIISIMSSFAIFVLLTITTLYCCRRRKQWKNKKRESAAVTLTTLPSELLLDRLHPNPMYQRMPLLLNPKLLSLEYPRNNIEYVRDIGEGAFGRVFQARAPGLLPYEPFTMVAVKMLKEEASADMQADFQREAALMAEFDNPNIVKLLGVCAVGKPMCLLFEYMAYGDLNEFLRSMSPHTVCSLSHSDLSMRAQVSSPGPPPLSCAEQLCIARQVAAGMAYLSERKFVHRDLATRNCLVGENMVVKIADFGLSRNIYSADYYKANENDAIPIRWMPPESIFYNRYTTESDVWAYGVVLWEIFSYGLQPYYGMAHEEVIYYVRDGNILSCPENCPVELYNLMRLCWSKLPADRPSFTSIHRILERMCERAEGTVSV
As to the kind of experiment: MuSK(h) Eurofins kinase panel. The note with it: Compound concentration 1.0 uM.

Test [12] addresses Casein kinase II subunit alpha' (Homo sapiens) (UniProt P19784). As to the kind of experiment: CK2alpha2(h) Eurofins kinase panel. The following applies: Compound concentration 1.0 uM.
In test [13] the target is Serine/threonine-protein kinase MRCK alpha (Homo sapiens) (UniProt Q5VT25). As to the kind of experiment: MRCKalpha(h) Eurofins kinase panel. The following applies: Compound concentration 1.0 uM.
Sequence of Serine/threonine-protein kinase MRCK alpha (Homo sapiens) (Q5VT25 whole entry): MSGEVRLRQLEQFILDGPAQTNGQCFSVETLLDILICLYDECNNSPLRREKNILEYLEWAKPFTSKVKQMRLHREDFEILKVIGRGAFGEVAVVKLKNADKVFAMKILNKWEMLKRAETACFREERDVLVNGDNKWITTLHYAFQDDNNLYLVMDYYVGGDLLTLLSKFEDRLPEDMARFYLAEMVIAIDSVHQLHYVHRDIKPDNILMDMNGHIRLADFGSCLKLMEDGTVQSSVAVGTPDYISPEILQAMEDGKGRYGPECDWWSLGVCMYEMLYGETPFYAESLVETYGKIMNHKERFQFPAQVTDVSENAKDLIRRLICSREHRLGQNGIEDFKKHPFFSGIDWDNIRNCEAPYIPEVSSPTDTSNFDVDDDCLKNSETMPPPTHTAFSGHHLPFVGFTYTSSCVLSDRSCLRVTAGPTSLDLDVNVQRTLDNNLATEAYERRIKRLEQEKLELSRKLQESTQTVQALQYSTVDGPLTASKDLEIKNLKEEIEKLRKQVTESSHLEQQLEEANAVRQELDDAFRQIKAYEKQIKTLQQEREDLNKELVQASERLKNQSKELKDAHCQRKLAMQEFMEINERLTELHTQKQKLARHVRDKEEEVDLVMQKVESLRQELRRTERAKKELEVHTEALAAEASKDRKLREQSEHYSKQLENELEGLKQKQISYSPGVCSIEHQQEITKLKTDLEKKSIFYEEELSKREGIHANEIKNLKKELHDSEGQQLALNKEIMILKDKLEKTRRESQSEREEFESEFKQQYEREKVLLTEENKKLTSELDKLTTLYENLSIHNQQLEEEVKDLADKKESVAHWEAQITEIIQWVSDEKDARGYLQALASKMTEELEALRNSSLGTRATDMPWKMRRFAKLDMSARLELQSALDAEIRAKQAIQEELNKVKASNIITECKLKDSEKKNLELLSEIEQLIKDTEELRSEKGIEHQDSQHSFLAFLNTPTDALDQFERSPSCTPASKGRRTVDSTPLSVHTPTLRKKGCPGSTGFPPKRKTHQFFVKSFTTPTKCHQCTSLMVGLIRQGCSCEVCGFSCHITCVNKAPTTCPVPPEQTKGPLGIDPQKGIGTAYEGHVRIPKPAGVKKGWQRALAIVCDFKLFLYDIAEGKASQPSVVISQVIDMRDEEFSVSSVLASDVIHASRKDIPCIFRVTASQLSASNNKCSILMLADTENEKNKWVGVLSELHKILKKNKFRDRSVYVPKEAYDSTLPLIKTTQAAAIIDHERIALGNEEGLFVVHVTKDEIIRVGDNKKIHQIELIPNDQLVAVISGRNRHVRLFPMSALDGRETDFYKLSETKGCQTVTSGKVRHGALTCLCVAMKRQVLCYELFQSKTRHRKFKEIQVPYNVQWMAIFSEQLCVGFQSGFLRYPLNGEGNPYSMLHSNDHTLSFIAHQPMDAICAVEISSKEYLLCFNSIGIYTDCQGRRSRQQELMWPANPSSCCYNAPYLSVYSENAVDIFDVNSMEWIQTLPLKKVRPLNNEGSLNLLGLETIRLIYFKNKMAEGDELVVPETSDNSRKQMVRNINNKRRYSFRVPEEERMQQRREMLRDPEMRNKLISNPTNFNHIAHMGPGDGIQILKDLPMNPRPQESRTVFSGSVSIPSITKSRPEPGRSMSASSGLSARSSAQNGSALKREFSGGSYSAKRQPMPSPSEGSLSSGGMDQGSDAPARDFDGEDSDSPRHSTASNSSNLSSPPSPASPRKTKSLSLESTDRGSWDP
For test [14], the target named is Mast/stem cell growth factor receptor Kit (Homo sapiens) (UniProt P10721). As to the kind of experiment: cKit(h) Eurofins kinase panel. The following applies: Compound concentration 1.0 uM.
The target in test [15] is T2, Serine/threonine-protein kinase 4 (Homo sapiens) (UniProt Q13043).
T2 sequence (whole entry): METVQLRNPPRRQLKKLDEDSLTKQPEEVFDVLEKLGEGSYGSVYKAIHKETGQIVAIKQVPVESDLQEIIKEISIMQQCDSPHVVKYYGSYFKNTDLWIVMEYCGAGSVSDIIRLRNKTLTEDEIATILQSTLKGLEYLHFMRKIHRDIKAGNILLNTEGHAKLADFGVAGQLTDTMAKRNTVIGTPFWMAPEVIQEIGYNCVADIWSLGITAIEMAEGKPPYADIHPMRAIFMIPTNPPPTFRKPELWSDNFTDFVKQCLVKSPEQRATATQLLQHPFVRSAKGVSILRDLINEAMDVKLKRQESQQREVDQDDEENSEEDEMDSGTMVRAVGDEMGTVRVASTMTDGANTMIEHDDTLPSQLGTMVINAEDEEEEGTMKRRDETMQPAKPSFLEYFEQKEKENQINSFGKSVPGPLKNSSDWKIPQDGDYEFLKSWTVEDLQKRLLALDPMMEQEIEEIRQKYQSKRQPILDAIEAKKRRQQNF
Put plainly: MST1(h) Eurofins kinase panel. The following applies: Compound concentration 1.0 uM.

Test [16] has as its system Daudi. Put plainly: Daudi cell line Proliferation assay. The note with it: time 3 day. Type of test: functional, Homo sapiens.
The subject of test [17] is LP-1. As to the kind of experiment: LP-1 cell line Proliferation assay. Format: functional, Homo sapiens. The following applies: time 3 day.
For test [18], the target named is Serine/threonine-protein kinase 24 (Homo sapiens, UniProt Q9Y6E0). The note with it: Compound concentration 1.0 uM.
Sequence of Serine/threonine-protein kinase 24 (Q9Y6E0 whole entry, looked up): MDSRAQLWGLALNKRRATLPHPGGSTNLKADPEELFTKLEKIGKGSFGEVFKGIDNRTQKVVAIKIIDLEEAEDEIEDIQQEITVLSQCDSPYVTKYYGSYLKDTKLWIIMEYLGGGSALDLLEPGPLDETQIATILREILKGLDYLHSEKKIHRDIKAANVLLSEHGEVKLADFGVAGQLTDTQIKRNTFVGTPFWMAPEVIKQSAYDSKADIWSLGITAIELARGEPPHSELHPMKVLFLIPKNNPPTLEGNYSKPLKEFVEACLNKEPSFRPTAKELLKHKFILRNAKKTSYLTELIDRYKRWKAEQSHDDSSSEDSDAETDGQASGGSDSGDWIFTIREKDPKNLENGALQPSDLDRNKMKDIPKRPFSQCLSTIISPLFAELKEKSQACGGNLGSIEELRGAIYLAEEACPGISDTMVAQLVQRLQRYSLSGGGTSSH
Test [19] addresses Dual specificity protein kinase CLK2 (Homo sapiens) (UniProt P49760). Put plainly: CLK2(h) Eurofins kinase panel. The note with it: Compound concentration 1.0 uM.
In test [20] the test system is AMO1. Put plainly: AMO-1 cell line Proliferation assay. The following applies: time 3 day. Type of test: functional, Homo sapiens.
In test [21] the target is LIM domain kinase 1 (Homo sapiens) (UniProt P53667). As to the kind of experiment: LIMK1(h) Eurofins kinase panel. The following applies: Compound concentration 1.0 uM.
Sequence of LIM domain kinase 1 (Homo sapiens) (P53667 whole entry, looked up, the tested form may be a part): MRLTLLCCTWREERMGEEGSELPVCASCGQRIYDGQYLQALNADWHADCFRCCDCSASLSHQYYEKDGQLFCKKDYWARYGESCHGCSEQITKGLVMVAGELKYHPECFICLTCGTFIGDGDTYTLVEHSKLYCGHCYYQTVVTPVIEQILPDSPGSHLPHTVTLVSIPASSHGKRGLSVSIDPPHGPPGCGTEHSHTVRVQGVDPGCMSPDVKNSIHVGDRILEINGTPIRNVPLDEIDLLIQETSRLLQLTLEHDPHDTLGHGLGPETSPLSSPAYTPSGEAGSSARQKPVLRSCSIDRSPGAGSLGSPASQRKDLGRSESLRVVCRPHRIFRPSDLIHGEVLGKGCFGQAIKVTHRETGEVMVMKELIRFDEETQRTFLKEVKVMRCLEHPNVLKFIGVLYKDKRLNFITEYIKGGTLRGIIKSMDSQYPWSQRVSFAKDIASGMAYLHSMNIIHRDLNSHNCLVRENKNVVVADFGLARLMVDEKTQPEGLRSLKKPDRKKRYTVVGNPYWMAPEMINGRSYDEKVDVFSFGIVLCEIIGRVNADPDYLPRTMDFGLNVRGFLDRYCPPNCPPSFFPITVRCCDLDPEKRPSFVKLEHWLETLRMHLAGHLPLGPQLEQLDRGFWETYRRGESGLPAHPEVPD
The target in test [22] is Serine/threonine-protein kinase PAK 4 (Homo sapiens) (UniProt O96013). Put plainly: PAK4(h) Eurofins kinase panel. The note with it: Compound concentration 1.0 uM.
Test [23] addresses Serine/threonine-protein kinase pim-1 (Homo sapiens) (UniProt P11309). Put plainly: Pim-1(h) Eurofins kinase panel. The following applies: Compound concentration 1.0 uM.

Sequence of Casein kinase II subunit alpha' (Homo sapiens) (P19784 whole entry, looked up): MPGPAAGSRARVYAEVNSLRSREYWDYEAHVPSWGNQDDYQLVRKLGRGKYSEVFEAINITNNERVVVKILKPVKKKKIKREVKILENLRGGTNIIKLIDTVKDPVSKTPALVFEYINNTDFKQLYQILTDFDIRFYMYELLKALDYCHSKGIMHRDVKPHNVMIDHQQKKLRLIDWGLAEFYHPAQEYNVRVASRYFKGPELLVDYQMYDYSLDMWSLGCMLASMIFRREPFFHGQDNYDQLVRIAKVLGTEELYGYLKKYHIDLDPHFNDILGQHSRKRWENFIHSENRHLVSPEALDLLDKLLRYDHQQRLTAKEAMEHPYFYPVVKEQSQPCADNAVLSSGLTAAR
Sequence of Serine/threonine-protein kinase pim-1 (Homo sapiens) (P11309 whole entry, looked up): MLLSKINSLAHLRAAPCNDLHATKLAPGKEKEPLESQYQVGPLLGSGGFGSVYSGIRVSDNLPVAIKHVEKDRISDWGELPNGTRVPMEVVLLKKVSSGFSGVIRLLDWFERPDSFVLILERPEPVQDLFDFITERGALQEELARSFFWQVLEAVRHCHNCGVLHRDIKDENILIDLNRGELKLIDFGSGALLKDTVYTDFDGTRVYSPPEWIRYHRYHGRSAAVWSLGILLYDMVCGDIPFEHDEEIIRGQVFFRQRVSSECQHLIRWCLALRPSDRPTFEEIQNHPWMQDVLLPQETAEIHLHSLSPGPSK

As for `CCc1ccccc1C(=O)Nc1n[nH]c2c(C)c(F)c(C3C(C#N)=C(C)N(C)C(C)=C3C#N)cc12` [BAY-3827], the “Cell Proliferation IC50” value in test [1] is above 10 µM; in test [5], 12 µM; in test [8], 18.7 µM; in test [16], 22.9 µM; in test [17], 1.9 µM; in [20] it was above 33 µM. The % residual kinase activity in test [2] was 99%; in test [3] it was 106%; in [4] it was 106%; in test [6], 89%; in test [7] it was 99%; in test [9], 121%. Besides, the % residual kinase activity was 108% in test [10]; 91% in [11]; 109% in [12]; 98% in test [13]; 101% in [14]; 73% in test [15]. For the same compound, the % residual kinase activity in [18] is 17%; in test [19], 93%; in test [21], 95%; in test [22], 91%; in [23] it was 119%.
